The source of these data is patent publication US20040204497A1, “Metabolic enhancing properties of octopamine salts” (Creative Compounds, LLC, priority 2003, published 2004).

Data set [1] is described as follows: Example 2: change in percent bodyfat and lean body mass, perceived energy and mental outlook in subjects. The conditions noted are these: for Change Percent Bodyfat / Change Percent Lean Body Mass: 6 mg/kg per day calculated as octopamine base; for Perceived Energy / Perceived Mental Outlook and Focus: subjective, scale of 1-10, 6 mg/kg per day. The class given is in vivo, human. As to the method:
Octopamine HCl was prepared and given as capsules in divided dosages at 6 mg/kg per day calculated as octopamine base. […] Subjective results are also shown regarding perceived energy and mental outlook and focus (scale of 1-10): […]

Data set [2] in a line: Stability of octopamine forms exposed to the atmosphere (in-house results). The class given is physicochemical. The conditions noted are these: normal atmospheric conditions; according to our calculations. The text has this: First, we have discovered that octopamine in the base form is very unstable and oxidizes rapidly when readily exposed to the atmosphere.
For instance, although the half-life of octopamine base is roughly 6 months, the half-life for octopamine salts of this invention such as octopamine HCl is at least 5 years according to our calculations. To be used commercially for metabolic enhancement, it is of extreme importance that the octopamine form used has a shelf life long enough so that the octopamine remains filly efficacious for at least one year and preferably two years.

Data set [3] in a line: Example 1: weight loss in subjects given capsules, no change of diet or exercise. It is filed as in vivo, human. Also on record: average weight loss: unit not given here. The conditions noted are these: 6 mg/kg per day calculated as octopamine base; for average weight loss: capsules, divided dosages. As to the method: Octopamine base, octopamine HCl, octopamine malate, and octopamine ethylcarbonate were prepared and given as capsules in divided dosages at 6 mg/kg per day calculated as octopamine base.

The nature of data set [4]: Metabolic potency, bioavailability and tolerability of octopamine salts versus base in users. It is filed as in vivo, human. The text has this:
Finally, we have discovered that the base form of octopamine has significant bioavailability problems. […] There is thus great need for an improvement to this technology which allows octopamine to be a commercially viable option for metabolic enhancement.
We have found the octopamine salts of this invention are up to four times more efficient at affecting specific metabolic parameters than octopamine base.
The octopamine salts of this invention can be commercially used in various ways as metabolic enhancers. For instance, we have found usefulness with these compounds as weight loss agents. […] Even in high dosages, the user feels no noticeable negative effect on his general feeling or overall state of well-being. Furthermore, these octopamine salts specifically enhance the loss of adipose tissue while preserving lean body mass such as muscle tissue. A significant problem for anyone trying to lose unwanted adipose tissue is the concurrent loss of lean body mass. Lean body mass includes tissues such as muscle, kidney, liver, heart and bone. For a person to feel healthy and strong, these tissues must also be healthy and strong. […]
Human dosaging for the octopamine salts of this invention is most preferable in the range of 5-15 mg/kg of bodyweight calculated as base octopamine. […]

Structures can show the parent of a compound that is named as a salt.

In the case of `NCC(O)c1ccc(O)cc1` (stereo not drawn) [Octopamine HCl], the “Change Percent Bodyfat” value in data set [1] (Week 1) is reported as “−.5%”; in data set [1] (Week 4), −2%; in data set [1] (Week 8) it was −4%. Also, the “Change Percent Lean Body Mass” value was 0% in data set [1] (Week 1), “+.3%” in data set [1] (Week 4) and “+1%” in data set [1] (Week 8). In addition, the figures for the “Perceived Energy” value in data set [1] (Week 1), in data set [1] (Week 4) and in data set [1] (Week 8) were 6, 8 and 8, respectively. Besides, the “Perceived Mental Outlook and Focus” value in data set [1] (Week 1) is recorded as 7; in data set [1] (Week 4), 7; in data set [1] (Week 8) it was 9. Also, the half-life (usually the time needed for the level to fall by half in the phase considered) in data set [2] is at least 1830 days. Further, the average weight loss is 2 in data set [3] (Week 1, HCl, 6 mg/kg/day); 6 in data set [3] (Week 4, HCl, 6 mg/kg/day); 9 in data set [3] (Week 8, HCl, 6 mg/kg/day).
As to `NCC(O)c1ccc(O)cc1` (stereo not drawn) [Octopamine base, Octopamine], the “minimum effective dosage relative to the octopamine salts of the invention” value in data set [4] was “nearly four times”. In addition, the “weight loss (result in words)” value in data set [3] (up to Week 8) was “neither the octopamine base nor the control resulted in appreciable or significant weight loss”. The average weight loss in data set [3] (Week 1, 6 mg/kg/day) is given as 0; in data set [3] (Week 4, 6 mg/kg/day), 1; in data set [3] (Week 8, 6 mg/kg/day), 2.
In the case of Octopamine ethylcarbonate, the average weight loss in data set [3] (Week 1) was 2; in data set [3] (Week 4), 6; in data set [3] (Week 8), 10.
With Octopamine malate, the average weight loss is given as 1 in data set [3] (Week 1), 5 in data set [3] (Week 4) and 10 in data set [3] (Week 8).
